According to patent US20080234188A1, “Antimicrobial Peptides” (The Hospital for Sick Children, priority 2001, published 2008):
In brackets after ≈: the same amount, converted by molar mass. Where a SMILES comes first, the peptide text is derived from it. Where no end group is shown, it is not given here.

Key:
[1] = system: C498: E. coli, wild type strain; assay type: cell-based; conditions: for MIC C498: wild type strain
From the text: (§1) The bacterial strains used were E. coli C498, E. coli C500, Escherichia coli UB1005 and its antibiotic supersusceptible derivative DC2 (22); a clinical isolate of Staphylococcus epidermidis (C621); coryneform bacterial strain Corynebacterium xerosis (C875); and E. coli ATCC 25922, Staphylococcus aureus ATCC 25923, Enterococcus faecalis ATCC 29212, Bacillus subtilis ATCC 6633 and Pseudomonas aeruginosa ATCC 27853, all from American Type Culture Collection.
(§2) Peptide antibacterial activity was assessed by the method of R. Hancock et al. (Wu & Hancock (1999), J. Biol. Chem., v. 274, pp. 29-35). Test strains of bacteria from Mueller Hinton agar (MHA) plates were inoculated into 5 ml Mueller Hinton Broth (MHB) in tubes and grown overnight at 37° C. on a shaker (180 rpm). Serial dilutions of test peptides (at 10 times the required test concentrations) were made in 0.01% acetic acid, 0.2% BSA, in polypropylene or coated glass tubes as follows: the test peptide was (a) dissolved in distilled water at 20 times the required maximum concentration (enough final volume for all tests to be performed on a given day); (b) diluted into an equal volume of 0.02% acetic acid, 0.4% BSA to give 10 times the required maximum concentration; (c) serial doubling dilutions were performed in 0.01% acetic acid, 0.2% BSA to provide serial dilutions of peptides at 10 times the required test concentrations, e.g., 640, 320, 160, . . . 2.5 μg/ml. (No deleterious effects of long-term storage of peptides in these media have been detected). Overnight bacterial cultures were diluted in MHB to give 2−7×10^5 colony forming units/ml. Bacterial suspension (100 μl) was dispensed in each well; controls without bacteria were maintained in parallel. To each well was added 11 μl of 10× test peptide and plates were incubated at 37° C. for 18-24 hours, and checked again at 40-48 hours. Plates were read visually and at 600 nm in a microplate reader (Molecular Devices).
(§3) were synthesized. The antibacterial activity of these peptides was determined against both Gram-positive bacteria ([…], Corynebacterium xerosis) and Gram-negative bacteria (various strains of E. coli). The results are shown in Table 2, along with the average hydrophobicity of each peptide, calculated as described herein.

[2] = system: C500: E. coli, antibiotic strain; assay type: cell-based; conditions: for MIC C500: antibiotic strain
From the text: as §1, §2, §3

E. coli UB1005 = assay type: cell-based, Escherichia coli; conditions: UB1005
From the text: as §1, §2
(§4) A further number of the peptides of the invention were tested for antimicrobial activity against a range of Gram-positive and Gram-negative bacteria by the assay described immediately before Example 1.

E. coli DC2 = experiment: Assay of antibacterial activity (MIC), E. coli DC2; assay type: cell-based, Escherichia coli; conditions: Table 3; Gram-negative
From the text: as §1, §2, §4

[3] = Hydrophobicity (hydropathy) from reverse-phase HPLC retention scale; assay type: physicochemical; design: key to Average Hydrophobicity of Core Sequence / Mean Core segment Hydrophobicity: arithmetic average of Table 1 hydropathy values of constituent residues; key to Hydropathy: hydropathy scale from HPLC retention times of model peptides (Table 1); conditions: for Mean residue hydropathy of X-residue peptide / Hydropathy: Table 1; for Hydropathy: of the X-residue, from HPLC retention of KKAAAXAAAAAXAAWAAXAAAKKKK-amide peptides; for Average Hydrophobicity of Core Sequence: Table 2, calculated from Table 1 hydropathy values; for Mean Core segment Hydrophobicity: Table 3
From the text: The “hydrophobicity value” of an amino acid residue means the hydrophobicity value of that residue as shown in Table 1 or as calculated by the method described herein.
The “hydrophobicity value” of an amino acid sequence or peptide means the arithmetic average of the individual hydrophobicity values of the constituent amino acid residues of the sequence.
Various hydrophobicity scales for proteins and amino acids have been described in the literature but the inventors have established the hydrophobicity scale of Table 1 based on the retention times on HPLC of a series of hydrophobic model peptides, as described in Liu and Deber (1998), Biopolymers (Peptide Science), v. 47, pp. 41-62).
The hydrophobicity value shown for each amino acid in Table 1 as “hydropathy” may be used as the hydrophobicity value for that amino acid in any peptide whose hydrophobicity value has to be calculated. The “average hydrophobicity” of a peptide containing amino acids shown in Table 1 is calculated by determining the arithmetic average of the Table 1 “hydropathy” values for the constituent amino acids of the sequence.
Peptides in accordance with the invention may also include other amino acids. For an amino acid not included in Table 1, the hydrophobicity value may be determined by the same method as described herein for obtaining the values of Table 1. For example, a peptide such as KKAAAXAAAAAXAAXAAXAAAKKKK-amide (Sequence ID No: 1) may be synthesized, where X is the amino acid whose hydrophobicity value is to be determined, and the retention time of the peptide on HPLC is determined, as described in the Examples. Similar peptides where X is Lys or Phe are also prepared and their HPLC retention times determined. The retention time, Rx, is converted to the hydropathy value H for the selected amino acid using the equation
H=(10×ΔtRx-Lys/ΔtRPhe-Lys)−5.00
where ΔtRx-Lys=retention time difference in minutes between Rx and the retention time of the most hydrophilic peptide tested (X=Lys) and where ΔtRPhe-Lys=retention time difference in minutes between the most hydrophobic peptide tested (X=Phe) and the most hydrophilic (X=Lys).
The retention time of each peptide was determined on a C4 reversed-phase column (4.6×250 mm, 300 A pore size, 10 μ particle size). Equal amounts of each peptide were injected into the column and eluted at a flow rate of 1 mL/min, utilizing a linear AB gradient (2% B/min), where buffer A was 0.1% TFA/ddH2O, and buffer B was 0.1% TFA/acetonitrile. The retention time of each peptide reported here was the average of triplicate measurements.

[4] = system: Staphylococcus epidermidis (C621); assay type: cell-based
From the text: as §1, §2, §3, §4

[5] = system: Corynebacterium xerosis (C875); assay type: cell-based
From the text: as §1, §2, §3, §4

Human RBC = assay type: cell-based
Experimental: (§5) Erythrocytes from heparinized rabbit or human blood were washed three times with phosphate-buffered saline (PBS; 5 mM phosphate buffer, 0.14 M saline, pH 7.3), and centrifuged at 1000×g for 15 min at 4° C. The erythrocytes were diluted with PBS to 4% (v/v). Dilutions of the peptides in PBS were plated in 100 μl volumes in microtitre plates (Costar 3790, polypropylene) together with 100μl of the erythrocyte suspension. PBS was used as control and 100% lysis was determined in 0.1% Triton X-100. The plates were incubated at 37° C. for 1 h and then centrifuged at 1000×g for 5 min. 100 μl aliquots of the supernatant were transferred to microtitre plates (Nunc, polystyrene), and the release of hemoglobin was monitored by measurement of the absorbance at 540 nm in a microplate reader. The results are shown in Table 6, for peptide concentrations of […]. With only one or two exceptions, little or no hemolysis was seen.

Rabbit RBC = assay type: cell-based
Experimental: as §5

Compound	MIC C498 [1] [µM]	MIC C500 [2] [µM]	MIC E. coli UB1005 (E. coli UB1005) [µM]	MIC E. coli DC2 (E. coli DC2) [µM]	Mean residue hydropathy of X-residue peptide [3]	Hydropathy [3]	Average Hydrophobicity of Core Sequence [3]	Mean Core segment Hydrophobicity [3]	MIC C621 [4] [µM]	MIC S. epidermidis C621 [4] [µM]	MIC C875 [5] [µM]	MIC C. xerosis C875 [5] [µM]	MIC C498 (active/inactive) ([1]; Table 2, class symbols)	MIC C500 (active/inactive) ([2]; Table 2, class symbols)	MIC C621 (active/inactive) ([4]; Table 2, class symbols)	MIC C875 (active/inactive) ([5]; Table 2, class symbols)	Human RBC (% lysis) 50 μM (Human RBC) [% lysis]	Human RBC (% lysis) 200 μM (Human RBC) [% lysis]	Rabbit RBC (% lysis) 50 μM (Rabbit RBC) [% lysis]	Rabbit RBC (% lysis) 200 μM (Rabbit RBC) [% lysis]
C[C@H](NC(=O)[C@H](C)NC(=O)[C@H](C)NC(=O)[C@H](Cc1ccc(O)cc1)NC(=O)[C@H](C)NC(=O)[C@H](C)NC(=O)[C@H](C)NC(=O)[C@H](CCCCN)NC(=O)[C@@H](N)CCCCN)C(=O)N[C@@H](C)C(=O)N[C@@H](C)C(=O)N[C@@H](Cc1ccc(O)cc1)C(=O)N[C@@H](C)C(=O)N[C@@H](C)C(=O)N[C@@H](Cc1c[nH]c2ccccc12)C(=O)N[C@@H](C)C(=O)N[C@@H](C)C(=O)N[C@@H](Cc1ccc(O)cc1)C(=O)N[C@@H](C)C(=O)N[C@@H](C)C(=O)N[C@@H](C)C(=O)N[C@@H](CCCCN)C(=O)N[C@@H](CCCCN)C(=O)N[C@@H](CCCCN)C(=O)N[C@@H](CCCCN)C(N)=O [Peptide Y25] (H-KKAAAYAAAAAYAAWAAYAAAKKKK-NH2; N-terminus assumed)	11 (≈ 27.8 µg/mL)	5 (≈ 12.6 µg/mL)	32 (≈ 80.9 µg/mL)	16 (≈ 40.4 µg/mL)	0.71	2.00	0.71	0.71	3 (≈ 7.58 µg/mL)	8 (≈ 20.2 µg/mL)	0.2 (≈ 0.506 µg/mL)	<0.25								
KKATALVGAASLTAWVGLASAKKKK-NH2							0.62						+	+	+	+				
CC[C@H](C)[C@H](NC(=O)[C@H](C)NC(=O)[C@H](C)NC(=O)[C@H](C)NC(=O)[C@H](CCCCN)NC(=O)[C@@H](N)CCCCN)C(=O)N[C@@H](C)C(=O)N[C@@H](C)C(=O)N[C@@H](C)C(=O)N[C@@H](C)C(=O)N[C@@H](C)C(=O)N[C@H](C(=O)N[C@@H](C)C(=O)N[C@@H](C)C(=O)N[C@@H](Cc1c[nH]c2ccccc12)C(=O)N[C@@H](C)C(=O)N[C@@H](C)C(=O)N[C@H](C(=O)N[C@@H](C)C(=O)N[C@@H](C)C(=O)N[C@@H](C)C(=O)N[C@@H](CCCCN)C(=O)N[C@@H](CCCCN)C(=O)N[C@@H](CCCCN)C(=O)N[C@@H](CCCCN)C(N)=O)[C@@H](C)CC)[C@@H](C)CC [Peptide I25] (H-KKAAAIAAAAAIAAWAAIAAAKKKK-NH2; N-terminus assumed)	10 (≈ 23.8 µg/mL)	10 (≈ 23.8 µg/mL)	>32	16 (≈ 38 µg/mL)	1.09	4.41	1.09	1.09	5 (≈ 11.9 µg/mL)	4 (≈ 9.51 µg/mL)		<0.25								
C[C@H](NC(=O)[C@H](C)NC(=O)[C@H](C)NC(=O)[C@H](Cc1c[nH]c2ccccc12)NC(=O)[C@H](C)NC(=O)[C@H](C)NC(=O)[C@H](C)NC(=O)[C@H](CCCCN)NC(=O)[C@@H](N)CCCCN)C(=O)N[C@@H](C)C(=O)N[C@@H](C)C(=O)N[C@@H](Cc1c[nH]c2ccccc12)C(=O)N[C@@H](C)C(=O)N[C@@H](C)C(=O)N[C@@H](Cc1c[nH]c2ccccc12)C(=O)N[C@@H](C)C(=O)N[C@@H](C)C(=O)N[C@@H](Cc1c[nH]c2ccccc12)C(=O)N[C@@H](C)C(=O)N[C@@H](C)C(=O)N[C@@H](C)C(=O)N[C@@H](CCCCN)C(=O)N[C@@H](CCCCN)C(=O)N[C@@H](CCCCN)C(=O)N[C@@H](CCCCN)C(N)=O [Peptide W25] (H-KKAAAWAAAAAWAAWAAWAAAKKKK-NH2; N-terminus assumed)	6 (≈ 15.6 µg/mL)	3 (≈ 7.79 µg/mL)	16 (≈ 41.6 µg/mL)	8 (≈ 20.8 µg/mL)					0.7 (≈ 1.82 µg/mL)	<0.25	0.2 (≈ 0.519 µg/mL)	<0.25								
C[C@H](NC(=O)[C@H](C)NC(=O)[C@H](C)NC(=O)[C@H](CO)NC(=O)[C@H](C)NC(=O)[C@H](C)NC(=O)[C@H](C)NC(=O)[C@H](CCCCN)NC(=O)[C@@H](N)CCCCN)C(=O)N[C@@H](C)C(=O)N[C@@H](C)C(=O)N[C@@H](CO)C(=O)N[C@@H](C)C(=O)N[C@@H](C)C(=O)N[C@@H](Cc1c[nH]c2ccccc12)C(=O)N[C@@H](C)C(=O)N[C@@H](C)C(=O)N[C@@H](CO)C(=O)N[C@@H](C)C(=O)N[C@@H](C)C(=O)N[C@@H](C)C(=O)N[C@@H](CCCCN)C(=O)N[C@@H](CCCCN)C(=O)N[C@@H](CCCCN)C(=O)N[C@@H](CCCCN)C(N)=O [Peptide S25] (H-KKAAASAAAAASAAWAASAAAKKKK-NH2; N-terminus assumed)			>64	>64						>64		>64					0	0	0	3
